The values that follow come from ChEMBL document CHEMBL1122523, “2-[[[2-(2,6-Dimethoxyphenoxy)ethyl]amino]-methyl] -1,4-benzoxathian: a new antagonist with high potency and selectivity toward alpha 1-adrenoreceptors” (J Med Chem, 1984).

Usually pA2 stands for the negative logarithm of the molar antagonist concentration that doubles the agonist concentration needed for the same response. Read a low pA2 as a weaker antagonist.

The target in test [1] is T1, Adrenergic receptor alpha-2 (Rattus norvegicus, UniProt P22086+P19328+P22909).
T1 sequence (P22086 whole entry): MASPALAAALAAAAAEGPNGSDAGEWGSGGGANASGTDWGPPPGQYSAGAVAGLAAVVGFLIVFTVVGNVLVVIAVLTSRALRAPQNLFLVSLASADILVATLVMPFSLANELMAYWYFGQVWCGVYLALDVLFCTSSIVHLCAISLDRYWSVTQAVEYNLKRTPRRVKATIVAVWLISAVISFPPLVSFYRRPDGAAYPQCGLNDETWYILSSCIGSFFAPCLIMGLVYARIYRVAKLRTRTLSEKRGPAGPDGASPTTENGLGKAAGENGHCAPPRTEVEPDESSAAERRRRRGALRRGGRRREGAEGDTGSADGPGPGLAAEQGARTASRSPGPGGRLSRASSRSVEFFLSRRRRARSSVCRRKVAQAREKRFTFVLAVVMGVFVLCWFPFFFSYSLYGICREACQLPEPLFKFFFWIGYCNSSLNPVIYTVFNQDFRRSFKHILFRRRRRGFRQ
T1 sequence (P19328 whole entry): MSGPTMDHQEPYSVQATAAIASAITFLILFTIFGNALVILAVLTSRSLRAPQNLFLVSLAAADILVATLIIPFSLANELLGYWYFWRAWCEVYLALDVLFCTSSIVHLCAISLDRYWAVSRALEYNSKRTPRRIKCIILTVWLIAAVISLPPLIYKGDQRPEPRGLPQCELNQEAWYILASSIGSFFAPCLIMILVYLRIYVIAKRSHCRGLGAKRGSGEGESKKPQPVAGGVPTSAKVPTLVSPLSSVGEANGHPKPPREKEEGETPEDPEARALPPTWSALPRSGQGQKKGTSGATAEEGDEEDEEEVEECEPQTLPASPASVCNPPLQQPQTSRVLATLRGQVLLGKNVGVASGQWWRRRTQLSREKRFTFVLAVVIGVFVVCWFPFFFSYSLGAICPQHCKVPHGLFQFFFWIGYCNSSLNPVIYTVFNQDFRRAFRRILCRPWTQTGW
T1 sequence (P22909 whole entry): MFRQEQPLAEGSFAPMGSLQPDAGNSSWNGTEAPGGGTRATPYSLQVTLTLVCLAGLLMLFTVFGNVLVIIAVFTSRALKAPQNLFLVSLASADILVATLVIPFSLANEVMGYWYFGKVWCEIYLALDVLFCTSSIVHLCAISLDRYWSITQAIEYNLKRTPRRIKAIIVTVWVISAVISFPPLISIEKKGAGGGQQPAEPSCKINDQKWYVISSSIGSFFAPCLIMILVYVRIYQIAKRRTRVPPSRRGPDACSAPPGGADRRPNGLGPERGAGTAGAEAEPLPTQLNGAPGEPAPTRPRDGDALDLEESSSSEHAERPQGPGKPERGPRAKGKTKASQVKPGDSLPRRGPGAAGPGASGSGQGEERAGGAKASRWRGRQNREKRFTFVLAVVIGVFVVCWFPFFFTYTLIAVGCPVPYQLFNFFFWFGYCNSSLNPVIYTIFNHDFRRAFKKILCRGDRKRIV
In words: Alpha-2 adrenergic receptor antagonist activity against agonist (clonidine) in isolated rat vas deferens. The class given is functional, tissue-based.

The target of test [2] is T2, Adrenergic receptor alpha-1 (Rattus norvegicus, UniProt P15823+P23944+P43140).
T2 sequence (P15823 whole entry): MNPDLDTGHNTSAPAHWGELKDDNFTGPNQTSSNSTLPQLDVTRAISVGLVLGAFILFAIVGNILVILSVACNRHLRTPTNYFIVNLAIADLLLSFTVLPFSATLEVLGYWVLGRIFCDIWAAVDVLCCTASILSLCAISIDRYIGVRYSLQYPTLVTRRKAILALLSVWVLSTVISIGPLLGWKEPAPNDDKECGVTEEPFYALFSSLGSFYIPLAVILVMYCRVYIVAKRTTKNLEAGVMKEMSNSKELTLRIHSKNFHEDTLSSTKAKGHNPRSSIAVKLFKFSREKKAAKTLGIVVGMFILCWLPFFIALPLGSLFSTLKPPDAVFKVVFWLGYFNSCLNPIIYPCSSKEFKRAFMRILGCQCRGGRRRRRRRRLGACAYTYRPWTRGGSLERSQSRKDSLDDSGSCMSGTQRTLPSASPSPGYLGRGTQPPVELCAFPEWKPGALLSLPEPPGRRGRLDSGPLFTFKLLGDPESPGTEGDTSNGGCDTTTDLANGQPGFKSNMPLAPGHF
T2 sequence (P23944 whole entry): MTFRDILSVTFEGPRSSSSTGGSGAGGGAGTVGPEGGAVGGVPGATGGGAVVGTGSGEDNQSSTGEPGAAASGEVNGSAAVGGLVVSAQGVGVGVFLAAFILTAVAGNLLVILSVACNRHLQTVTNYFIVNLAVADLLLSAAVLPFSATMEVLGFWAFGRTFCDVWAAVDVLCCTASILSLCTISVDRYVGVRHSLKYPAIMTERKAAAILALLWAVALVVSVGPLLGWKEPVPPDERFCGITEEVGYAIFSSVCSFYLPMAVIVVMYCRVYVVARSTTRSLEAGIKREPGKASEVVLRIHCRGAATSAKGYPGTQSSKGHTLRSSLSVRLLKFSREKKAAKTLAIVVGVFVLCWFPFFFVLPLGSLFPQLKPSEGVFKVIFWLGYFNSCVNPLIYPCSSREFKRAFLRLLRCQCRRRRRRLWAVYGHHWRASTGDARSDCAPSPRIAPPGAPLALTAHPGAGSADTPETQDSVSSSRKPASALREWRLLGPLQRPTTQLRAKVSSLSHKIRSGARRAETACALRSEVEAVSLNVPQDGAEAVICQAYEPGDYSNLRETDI
T2 sequence (P43140 whole entry): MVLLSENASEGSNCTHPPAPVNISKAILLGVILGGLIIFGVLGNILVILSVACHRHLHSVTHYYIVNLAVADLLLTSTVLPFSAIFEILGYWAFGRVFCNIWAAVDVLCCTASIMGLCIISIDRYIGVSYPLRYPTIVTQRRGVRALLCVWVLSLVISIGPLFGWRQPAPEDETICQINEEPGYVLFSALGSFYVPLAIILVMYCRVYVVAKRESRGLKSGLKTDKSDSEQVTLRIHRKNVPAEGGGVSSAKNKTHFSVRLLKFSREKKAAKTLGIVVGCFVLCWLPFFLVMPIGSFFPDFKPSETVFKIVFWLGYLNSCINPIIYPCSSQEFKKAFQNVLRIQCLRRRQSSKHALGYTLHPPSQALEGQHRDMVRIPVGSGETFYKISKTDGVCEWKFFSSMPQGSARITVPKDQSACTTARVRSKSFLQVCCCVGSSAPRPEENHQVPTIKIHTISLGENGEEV
In words: Alpha-1 adrenergic receptor antagonist activity against agonist (norepinephrine) in isolated rat vas deferens. The class given is functional, tissue-based.

Consider `COc1cccc(OC)c1OCCNCC1CSc2ccccc2O1.Cl` (centres undefined) [BENOXATHIAN HYDROCHLORIDE], for which the values for the pA2 in test [1] and in test [2] were 6.26 and 9.26, respectively.

Regarding `COc1cccc(OC)c1OCCNCC1COc2ccccc2O1.Cl` (centres undefined) [2- (2,6-DIMETHOXYPHENOXYETHYL)AMINOMETHYL-1,4-BENZODIOXANE HYDROCHLORIDE (WB 4101)], the pA2 is given as 6.29 in test [1] and 8.83 in test [2].
